What was measured:
RNase [1] = molecular target: T1, RNase (Bos taurus, UniProt P61823); assay: Measurements of RNase activity after incubation with HOCl, HOBr or PM; assay type: biochemical; conditions: for effect on RNase activity: RNase 15 μg/mL incubated with different concentrations of the substance at 37° C. for 2 h
T1 construct: purchased Worthington Biochemical Corporation
T1 sequence (P61823 27-150): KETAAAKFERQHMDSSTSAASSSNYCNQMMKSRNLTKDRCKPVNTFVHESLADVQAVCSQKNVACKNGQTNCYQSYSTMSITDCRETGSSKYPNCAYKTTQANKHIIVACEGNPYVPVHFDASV
Method: FIG. 1. […] RNase (15 μg/mL) was incubated alone or with different concentrations of HOCl, HOBr or PM at 37° C. for 2 h. Enzymatic activity was determined as described under Experimental Procedures.
Measurements of RNase Activity—RNase activity was determined by measuring the formation of acid-soluble oligonucleotide as described by Kalnitsky et al, with some modifications previously described by Voziyan et al. For the assay, 100 μL of 3 μg/mL RNase in 100 mM sodium acetate, pH 5.0, was mixed with 100 μL of 1% yeast RNA in the same buffer. After the incubation at 37° C. for 5 min, the reaction was stopped by the addition of 100 μL of an ice-cold solution of 0.8% lanthanum nitrate in 18% perchloric acid. The incubations were kept on ice for 5 min to ensure complete precipitation of undigested RNA and then centrifuged at 12000 g for 10 min. An aliquot of the supernatant (20 μL) was diluted to 1 mL with distilled water, the amount of digested (solubilized) RNA was determined by measuring the absorbance at 260 nm. The activity of RNase incubated either alone or with PM or an amino acid substitute at 37° C. was monitored separately and used as a reference for each incubation time.

EHS collagen IV = assay: Chlorination of type IV collagen by HOCl, N-chloramine assay; assay type: biochemical, murine; conditions: HOCl with equimolar PM, 1 h
Method: N-Chloramine Assay/ TMB Assay—The presence of N-chloramines were determined by the method of Witko et al. [3] and Dypbukt et al. [4]. The former method is based on the colorimetric measurement of triiodide ions formed by the oxidation of potassium iodide (KI) in solution. Chloroamine-T, a commercially available source of N-chloramine, was used to calibrate the assay. 100 mM chloramine-T solution was made fresh in distilled H2O. The 100 mM chloramines-T was diluted to final concentrations ranging from 20 to 100 μM immediately before use. The direct oxidation of Kl by NaOCl was also determined and these values were subtracted as background from the corresponding treated samples. The resulting difference represented the amount of N-chloramine present in each sample. In the latter method the developing reagent was composed of 2 mM TMB in 400 mM acetate buffer, pH 5.4, containing 10% dimethlyforamide and 100 μM sodium iodide. This solution was prepared by dissolving TMB in 100% DMF, diluting with acetate buffer to get the desired final concentration of TMB, and then adding sodium iodide. When the developing reagent was mixed with the solutions of chloramines, the final concentration of TMB was always at least 10 times that of the concentration of chloramines. This prevented further oxidation of the blue product. […]

[2] = test system: integrin α1β1 binding to collagen IV; assay: Modification of collagen IV and integrin binding assay (solid phase); set-up: species or system Human; conditions: 0.1 mM HOCl or HOBr with 0.1 mM PM, 1 h; integrin 1 μg/mL, 2 h at 30° C.
Method: FIG. 6B. EHS Collagen IV was coated onto 96-well plate overnight at 4° C. Collagen IV was incubated with 0.1 mM HOCl or HOBr either with or without 0.1 mM PM for 1 h at 37° C. Collagen IV was then incubated with 1 μg/mL of integrin α1β1 for 2 h at 30° C. Integrin binding was detected in solid phase binding assay using integrin α1β1 antibody. The bars represent background-subtracted […] binding±SD (n=4). *P<0.05, control vs. HOCl or HOBr; **P<0.05, HOCl or HOBr vs. HOCl+PM or HOBr+PM.
Modification of Collagen IV and Integrin Binding Assay—20 μg/mL of type IV collagen in 20 mM sodium phosphate buffer, 7.5, was immobilized on 96 well plates at 4° C. overnight. Nonspecific binding sites were blocked with 1% BSA in TBS for 2 hr at 30° C. as previously described. Wells were washed five times with either TBS or 100 mM sodium phosphate, pH 7.5, before being incubated in the same buffer with or without HOCl/HOBr alone or HOCl/l HOBr plus PM. […] After extensive washing, the bound antibodies were detected using alkaline phosphatase-conjugated anti-mouse IgG antibodies. p-Nitrophenyl phosphate substrate (Sigma) was added to the wells, and absorbance was read at 410 nm. Readings from the samples containing EDTA were subtracted from all the data to obtain the baseline corrected magnesium dependent binding.

RNase [3] = assay: LC-MS/MS analysis of RNase modifications (halogenation of Tyr-92 and Tyr-97); assay type: biochemical; conditions: RNase with HOCl or HOBr, with or without PM
Method: FIG. 3A. Modification of functionally important chlorinated Tyr species (Y-92 and Y-97) in RNase by HOCl and protection by PM. *P<0.05, control vs. HOCl (n=3); **P<0.05, HOCl vs. HOCl+PM (n=3).
FIG. 3B. Modification of functionally important chlorinated Tyr species (Y-92 and Y-97) in RNase by HOBr and protection by PM. *P<0.05, control vs. HOBr; **P<0.05, HOBr vs. HOBr+PM.
LC-MS/MS analysis of RNase modifications—The site-specific modifications in RNase were analyzed by tandem mass spectrometry. The samples were prepared using the spin filter protocol for proteomic analysis. RNase samples were digested either with trypsin. The data-dependent scanning was performed using a LTQ Orbitrap^TM (Thermo Fischer Scientific, San Jose, Calif.) mass spectrometer equipped with an Eksigent AS1 autosampler and an Eksigent 1D+HPLC pump attached directly to the instrument's nanospray source. The peptides were separated on a capillary tip, 100 μm×18 cm, packed with C18 resin (Jupiter C18, 3 μm, 300 Å, Phenomenex, Torrance, Calif.) using an inline vented trapping column that was 100 μm×6 cm. […]
The data generated from the data-dependent LC-MS/MS experiments were analyzed using Sequest. […] The peak containing the peptide of interest was extracted from the chromatogram and the area of the peak was determined using Xcalibur™ software. […]

Row | Compound | effect on RNase activity (RNase [1]) | protection of RNase enzymatic activity against hypohalous acids (RNase [1]; RNase with HOCl or HOBr plus PM) | chlorination of collagen IV by hypochlorous acid (protein chloramine content) (EHS collagen IV) | binding of integrin α1β1 to collagen IV in the presence of HOCl or HOBr [2] | halogenation of Tyr-92 and Tyr-97 residues in RNase (RNase [3])
1 | Cc1ncc(CO)c(CN)c1O [PM, Pyridoxamine] | no effect on activity | protected enzymatic activity | significantly inhibited chlorination | protected binding | inhibited halogenation
2 | OBr [HOBr, hypobromous acid] | inhibit RNase activity | – | – | – | –
3 | OCl [HOCl, hypochlorous acid] | inhibit RNase activity | – | – | – | –

From patent publication US20130017616A1, “Methods For Treating Inflammation” (Vanderbilt University - Center for Technology Transfer and …, priority 2011, published 2013)
